# From patent publication US20220380769A1 (priority 2020, published 2022)
# “Also recorded” adds a separate entry of the source. Read-outs that look alike come from different tables or passages of the source.
# Experiments:
# [1] = Development of antibodies to the dsRNA in usage
# Excerpt: (§1) Of the tdsRNA of the disclosure, the tdsRNA of formula 1 and formula 5 is preferred. This is because mis-paired regions of base pair hydrogen bonding accelerate chain hydrolysis while preserving biological activity compared to, for example, formula 3 and formula 4. Also formula 1 and formula 5 had decreased toxicity and improved safety compared to the tdsRNA which has an absence of mis-pairing.
# TNF-α = TNF-α induction
# Excerpt: as §1
# TLR3 = TLR3 agonist selectivity versus RNA helicase sensors (MDA5, RIG-I); conditions: versus TLR-3 independent pathways (MDA5, RIG-I)
# Excerpt: as §1
# human CoV strain OC43 = conditions: Strain OC43/BS-C-1 Kidney cells (African Green Monkey); inhibition of CPE; cited from earlier work
# [2] = test system: SARS virus (Urbani Strain); conditions: in vivo, cited from earlier work
# [3] = cited from earlier work
# SARS-CoV Strain v2163 = conditions: in vivo, cited from earlier work
# [4] = Synergy of rintatolimod with antiviral and antiproliferative drugs
# Excerpt: These interferons include rIFN-α-2a, rIFN-β-1b, rIFN-γ.
# [5] = test system: normal, human-derived tracheal/bronchial epithelial (TBE) cells
# [6] = test system: avian H5N1 and H7N9 influenza hemagglutinins (HAs); conditions: in vivo; cited from earlier work
# Ebola Virus = conditions: in vivo, 6 mg/kg
# H5N1 influenza viruses = conditions: in vivo; cited from earlier work
# [7] = Clinical safety and tolerability in humans; format: in vivo, human
# Excerpt: Favorable safety profiles have been seen for intraperitoneal, intravenous, and intranasal routes of administration of tdsRNA.
# H5N1 influenza virus = conditions: in vivo; cited from earlier work
# Mouse Hepatitis CoV MHV = conditions: Mouse Hepatitis CoV MHV/BALB/c mice/IP; 10 μg/dose; cited from earlier work
# [8] = test system: SARS-CoV-2 (strain USA-WA1/2020); test: microbe, parasite or virus in culture; format: cell-based
# [9] = test system: SARS-associated coronavirus Strain FFM1; conditions: Strain FFM1/Caco-2; cited from earlier work
# [10] = test system: SARS coronavirus Strain 39849; conditions: Strain 39849/Vero E6; cited from earlier work
# [11] = test system: SARS-associated coronavirus Strain FFM1; conditions: Strain FFM1/CL-14; cited from earlier work
# [12] = test system: SARS coronavirus 2003VA2774; conditions: cited from earlier work
# [13] = human; cited from earlier work
compound,measurement,setting,value
rugged dsRNA [formula 5],development of antibodies,[1],no development of antibodies
same,TNF-α induction,TNF-α,does not induce TNF-α
same,TLR3 agonist selectivity,TLR3,selective TLR3 agonist
"Polyribosinic-Polyribocytidylic Acid Stabilized with Poly-L-lysine, in Carboxymethylcellulose [Poly ICLC]",EC50,human CoV strain OC43,EC50: >100 μg/mL
rIn.r(C12U)n [Rintatolimod],Drug Dose giving reduction of virus lung titers below level of detection on Day 3,[2]; ip,10 mg/kg
same,SARS virus (Urbani Strain) titers in the lungs,[2],Complete inhibition to below detectable levels; also recorded: reduced virus lung titers to below detectable limits
same,tolerability of dosage level,"[3]; 700 mg in an average weight human (70 kg), equivalent to 10 mg/kg",generally well-tolerated
same,tolerability administered intravenously,"[3]; Chronic Fatigue Syndrome (CFS) patients, placebo-controlled trials",generally well-tolerated
same,lung scores and weight loss,SARS-CoV Strain v2163; 10 mg/kg/day,significantly reduced
same,Survival,SARS-CoV Strain v2163,100%
same,Survival (mice surviving/total),SARS-CoV Strain v2163,10/10 and (10/10)
same,decline of virus in the lungs compared with untreated animals,SARS-CoV Strain v2163,more rapid decline of virus in the lungs
same,"synergy with α, β, and γ interferons, antiviral indication","[4]; HIV/AIDS, rIFN-α-2a, rIFN-β-1b, rIFN-γ",synergy; also recorded: synergistic
same,synergy with small molecule antiviral drugs,"[4]; Influenza (oseltamivir, zanamivir), HIV/AIDS (abacavir, zidovudine, zalcitabine, didanosine, stavudine, efavirenz, indinavir, ritonavir, nelfinavir, amprenavir, ribavirin)",synergy; also recorded: synergistic
same,"synergy, antiproliferative (cancer) indications","[4]; interferons (nIFN-α, rIFN-α-2a, nIFN-β, rIFN-β-1b, nIFN-γ), IL-2, Anti-PD-L1",synergistic
same,cytotoxic / cellular toxicity,[5]; 0.5 mg/mL,0%
same,cytotoxic / cellular toxicity,[5]; 1.5 mg/mL,0%
same,cytotoxic,[5]; 4.5 mg/mL,12%
same,cytotoxic,[5]; 10 mg/mL,47%
same,cross-reactive IgA antibody formation against avian H5N1 and H7N9 influenza hemagglutinins,[6],induced cross-reactive IgA antibody formation
same,tolerability of combinational use with FluMist,[6],well tolerated
same,Survival,Ebola Virus,100%
same,antigen specific IgA response in the nasal mucosa,H5N1 influenza viruses,robust antigen specific IgA response
same,protection against challenge with homologous and heterologous H5N1 influenza viruses,H5N1 influenza viruses,protected
same,drug-related deaths,"[7]; clinical trials, over 1,200 patients",no drug-related deaths
same,tolerability in clinical trials,"[7]; over 1,200 patients, over 100,000 doses",well-tolerated
same,serious adverse events compared to placebo,"[7]; two placebo-controlled, randomized studies",no increase
same,Vaccine specific salivary IgA and serum IgG antibodies,H5N1 influenza virus,detected after the second immunization
same,protection from challenge infection with the homologous virus,H5N1 influenza virus,completely protected
same,serum neutralizing antibody activity against homologous and heterologous H5N1 influenza virus,H5N1 influenza virus,developed serum neutralizing anti-body activity
same,Survival,Mouse Hepatitis CoV MHV,increased survival
rIn.rCn [formula 4],TNF-α induction,TNF-α,high levels
same,TLR3 agonist selectivity,TLR3,non-selective
rIn.r(CxU)n [formula 1],development of antibodies,[1],no development of antibodies
same,TNF-α induction,TNF-α,does not induce TNF-α
same,TLR3 agonist selectivity,TLR3,selective TLR3 agonist
CCC(CC)COC(=O)[C@H](C)N[P@](=O)(OC[C@H]1O[C@@](C#N)(c2ccc3c(N)ncnn23)[C@H](O)[C@@H]1O)Oc1ccccc1 [Remdesivir],Log10 CCID50 virus per 0.2 mL,[8]; 0.001 μg/mL,4.30
same,Log10 CCID50 virus per 0.2 mL,[8]; 0.01 μg/mL,3.67
same,Log10 CCID50 virus per 0.2 mL,[8]; 0.1 μg/mL,3.00
same,Log10 CCID50 virus per 0.2 mL,[8]; 1 μg/mL,3.00
same,EC90,"[8]; Severe acute respiratory syndrome coronavirus 2, read-out: EC90 (concentration to reduce virus yield by 1 log10)",0.01 µg/mL
NC(=O)c1ncn([C@@H]2O[C@H](CO)[C@@H](O)[C@H]2O)n1 [Ribavirin],EC50,[9],EC50: 4.7 μg/mL
same,EC50,[10],EC50: 50-100 μg/mL
same,EC50,[11],EC50: 5.3 μg/mL
same,Survival (mice surviving/total),SARS-CoV Strain v2163,(3/10) 65
same,IC100,[12],"IC100: 5,000 μg/mL"
same,clinically achievable serum concentrations,[13],3.7 µg/mL
